In patent US20220088016A1, “CANCER TREATMENT USING MULTI-TARGETED KINASE INHIBITOR IN COMBINATION OF PROTEIN KINASE BIOMARKERS” (ZHEJIANG CROWNMAB BIOTECH CO. LTD., priority 2019, published 2022) one finds remaining activity data, which are given here for 1 compound.

What all share (assay): Kinase profiling
Holding throughout (type): binding
Common to all, as to conditions: read-out: % Ctrl @ 1000 nM

One test has as its target T1, NDR1 (Homo sapiens, UniProt Q15208).
T1 construct: T7 phage fusion (said for most assays); made in house

For the next test, the target named is BRK (Homo sapiens, UniProt Q13882).
The target of a further test is PRKG1 (Homo sapiens, UniProt Q13976).

Each structure is given as a SMILES string.

Sequence of PRKG1 (Q13976 whole entry): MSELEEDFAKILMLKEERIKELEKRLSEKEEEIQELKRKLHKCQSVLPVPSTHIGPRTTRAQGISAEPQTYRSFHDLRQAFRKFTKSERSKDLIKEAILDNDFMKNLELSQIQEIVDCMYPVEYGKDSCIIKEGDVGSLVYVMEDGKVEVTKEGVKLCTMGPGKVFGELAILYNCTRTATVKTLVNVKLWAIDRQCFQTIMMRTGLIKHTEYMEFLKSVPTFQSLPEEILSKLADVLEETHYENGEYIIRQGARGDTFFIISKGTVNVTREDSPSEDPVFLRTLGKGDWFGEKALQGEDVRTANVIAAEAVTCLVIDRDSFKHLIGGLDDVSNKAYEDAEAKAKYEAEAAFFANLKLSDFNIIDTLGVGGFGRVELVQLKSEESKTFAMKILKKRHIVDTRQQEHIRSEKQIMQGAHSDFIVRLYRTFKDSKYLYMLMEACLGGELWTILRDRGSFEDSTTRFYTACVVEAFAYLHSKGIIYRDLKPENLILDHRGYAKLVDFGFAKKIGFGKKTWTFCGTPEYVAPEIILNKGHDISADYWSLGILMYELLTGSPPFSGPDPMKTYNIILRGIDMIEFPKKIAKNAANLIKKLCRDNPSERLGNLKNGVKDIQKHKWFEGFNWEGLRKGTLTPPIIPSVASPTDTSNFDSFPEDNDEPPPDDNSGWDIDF
Sequence of BRK (Q13882 whole entry): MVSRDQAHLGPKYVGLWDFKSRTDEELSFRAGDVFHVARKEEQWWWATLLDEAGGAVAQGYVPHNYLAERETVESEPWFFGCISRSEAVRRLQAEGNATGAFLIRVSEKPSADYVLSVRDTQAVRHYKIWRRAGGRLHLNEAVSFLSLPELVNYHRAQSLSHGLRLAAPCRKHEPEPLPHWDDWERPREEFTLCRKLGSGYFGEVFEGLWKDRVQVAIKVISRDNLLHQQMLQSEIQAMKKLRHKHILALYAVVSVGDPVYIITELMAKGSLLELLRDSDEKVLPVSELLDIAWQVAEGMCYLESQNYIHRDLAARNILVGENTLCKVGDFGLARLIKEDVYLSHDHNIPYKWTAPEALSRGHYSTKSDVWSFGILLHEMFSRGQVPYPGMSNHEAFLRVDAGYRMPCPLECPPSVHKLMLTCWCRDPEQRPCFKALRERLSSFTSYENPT
T1 sequence (Q15208 whole entry, the tested form may be a part): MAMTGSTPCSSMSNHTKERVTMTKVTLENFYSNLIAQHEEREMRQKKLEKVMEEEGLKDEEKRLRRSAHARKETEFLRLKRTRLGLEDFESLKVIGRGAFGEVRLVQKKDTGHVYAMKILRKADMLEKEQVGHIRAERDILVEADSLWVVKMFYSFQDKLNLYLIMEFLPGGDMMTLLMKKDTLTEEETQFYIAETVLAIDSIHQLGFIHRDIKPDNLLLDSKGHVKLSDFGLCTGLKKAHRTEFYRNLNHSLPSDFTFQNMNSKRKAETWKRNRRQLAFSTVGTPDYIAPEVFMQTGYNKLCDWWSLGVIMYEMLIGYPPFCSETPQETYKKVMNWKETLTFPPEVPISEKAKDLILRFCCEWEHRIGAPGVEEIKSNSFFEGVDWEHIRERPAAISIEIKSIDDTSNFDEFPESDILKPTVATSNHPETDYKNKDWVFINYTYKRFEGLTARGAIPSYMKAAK

On to `Cc1cc(Oc2cc(NC(=O)C3CC3)ncn2)ccc1NC(=O)Nc1ccc(Cl)c(C(F)(F)F)c1` [CBT-102], for which the values for the remaining activity at 1 µM on NDR1, at BRK and at PRKG1 were 94%, 89% and 100%, respectively.
